Read-outs that look alike come from different tables or passages of the source.
How the values were obtained:
Kunming mice [1] = type: in vivo, mouse
Procedure: For each drug, 10 male Kunming mice weighing 20-35 g were included, and the dose of each drug was 2×ED50 in mice. After the compound of the present invention and fospropofol were respectively dissolved in saline, the resultant solutions were injected via the mouse tail vein. For propofol, a glucose dilution (5 mg/mL) of a commercially available emulsion of diprivan was selected and injected via the mouse tail vein; while, for another substituted phenol molecule (CAS:1637741-58-2), its 30% fat emulsion was prepared as a medicated emulsion. The concentration of the injectable solution of the compound according to the present invention was 10-15 mg/mL, and the concentration of the injectable solution of fospropofol was 55 mg/mL, while the concentration of the injectable solution of another substituted phenol molecule (CAS:1637741-58-2) was 1 mg/mL. After injection of tested drug, the occurrence time T1 of righting reflex after its disappearance, the duration T2 for the disappearance of righting reflex (i.e. anesthesia time) and the time T3 required for the animal to recover completely after waking up were recorded. Complete recovery refers to the recovery of autonomous activities of animals to the level before administration. In the experiment, animals were not given respiratory support such as oxygen inhalation or intubation.

[2] = Decomposition of prodrugs in mouse plasma in vitro (HPLC of released propofol or other substituted phenol); type: in vitro ADME; settings: 37° C.
Procedure: The prodrug to be tested was prepared into a saline solution of 10 mg/mL. 10 μL of drug-containing solution was added to 990 μL of mouse plasma, vortexed for 30 s, and then incubated at 37° C. At 30 s, 1 min, 5 min, 10 min, 30 min, 60 min and 120 min, 50 μL of drug-containing plasma was collected, to which was immediately added 150 μL of acetonitrile to terminate the enzymatic reaction, and then centrifuged at 20000 rpm and 4° C. for 10 min. 50 μL of supernatant was taken out and injected into HPLC, to determine the concentration of propofol by internal standard method. The decomposition rate of the prodrug was calculated from the concentrations of propofol or other substituted phenols. Chromatographic conditions: Agilent Zorbax XdB C18 column (150 mm)×4.6 mm, 5 μm); column temperature 30° C.; the mobile phase, water:acetonitrile (40:60, v/v); fluorescence wavelength: excitation wavelength (Ex) at 276 nm, emission wavelength (EM) at 310 nm; flow rate: 1.2 mL/min; retention time: internal standard (thymol) 3.9 min, propofol 7.4 min. Linear range of propofol or other substituted phenols: 50-35000 ng/mL. Instruments: Waters 2695 high performance liquid chromatograph, Waters 2475 fluorescence detector.

Kunming mice [3] = assay: Determination of therapeutic index (ED50 and LD50, up-and-down method); type: in vivo, mouse; settings: half male and half female
Procedure: Determination of therapeutic index (TI) of prodrug molecules: by referring the method in literature (Dixon, W. Staircase bioassay: the up-and-down method. Neurosci. Biobehav. Rev. 1991, 15, 47-50), the half-effective dose (ED50) and half-lethal dose (LD50) of the molecule to be tested were determined in Kunming mice (weighing 25-30 g, half male and half female). The therapeutic index for each molecule was calculated according to the equation: TI=LD50/ED50.

[4] = Table 4 (other substituted phenols and prodrugs), dose 2×ED50, tail vein injection, male Kunming mice
[5] = Table 3, dose 2×ED50, tail vein injection, male Kunming mice

Compound | T1: the onset time after injection (Kunming mice [1]; [4]) | T2: the duration of disappearance of righting reflex (Kunming mice [1]; [4]) [min] | T3: the time required for righting reflex to recover to autonomous activity (Kunming mice [1]; [4]) [min] | T1: the onset time after injection (Kunming mice [1]; [5]) | T2: the duration of disappearance of righting reflex (Kunming mice [1]; [5]) [min] | T3: the time required for righting reflex to recover to autonomous activity (Kunming mice [1]; [5]) [min] | Decomposition rates of prodrugs ([2]; 10 min) | Decomposition rates of prodrugs ([2]; 30 min) [%] | Decomposition rates of prodrugs ([2]; 60 min) [%] | Decomposition rates of prodrugs ([2]; 120 min) [%] | Decomposition rates of prodrugs ([2]; 120 min, listed as fopropofol) [%] | TI (therapeutic index) (Kunming mice [3]) | Decomposition rates of prodrugs ([2]; 30 s) [%] | Decomposition rates of prodrugs ([2]; 1 min) [%] | Decomposition rates of prodrugs ([2]; 5 min) [%] | T1: the onset time after injection (Kunming mice [1]; mouse, in vivo) | T2: the duration of disappearance of righting reflex (Kunming mice [1]; mouse, in vivo) [min] | T3: the time required for righting reflex to recover to autonomous activity (Kunming mice [1]; mouse, in vivo) [min]
CC(C)c1cccc([C@@H](C)C2CC2)c1OC(=O)COC(=O)CN1CCCC1.Cl [Compound 55] | Immediate | 5 to 9 | 1 to 2 | – | – | – | – | – | – | – | – | – | – | – | – | – | – | –
CC(C)c1cccc(C(C)C)c1OCOP(=O)(O)O [Fospropofol, fospropofol, reference compound] | – | – | – | 1.5 to 2 min | 28 to 45 | 5 to 8 | not decomposed significantly | 3 | 16 | 38 | 38 | 2.9 | – | – | – | – | – | –
CC(C)c1cccc(C(C)C)c1OC(=O)COC(=O)[C@@H](C)N(C)C.Cl [Compound 41] | – | – | – | Immediate | 5 to 13 | 1 to 2 | 100% | 100 | 100 | 100 | – | 3.8 | 89 | 100 | 100 | – | – | –
CC(C)c1cccc([C@H](C)C2CC2)c1OC(=O)COC(=O)CN1CCCCC1.Cl [Compound 53] | Immediate | 5 to 8.5 | 1 to 2 | – | – | – | – | – | – | – | – | – | – | – | – | – | – | –
CC(C)c1cccc(C(C)C)c1OC(=O)COC(=O)CN1CCC1.Cl [Compound 37] | – | – | – | Immediate | 4 to 10 | 1 to 2 | 100% | 100 | 100 | 100 | – | 3.9 | 75 | 92 | 100 | – | – | –
CC(C)c1cccc(C(C)C)c1OC(=O)COC(=O)CN1CCCCC1 [Compound 29] | – | – | – | – | – | 1 to 2 | 100% | 100 | 100 | 100 | – | 4.1 | 88 | 100 | 100 | Immediate | 5 to 14 | –
CC(C)c1cccc([C@H](C)C2CC2)c1O [(R)-2-cyclopropylethyl-6-isopropylphenol, reference compound] | Immediate | 5 to 8 | 1 to 2 | – | – | – | – | – | – | – | – | – | – | – | – | – | – | –
CNCC(=O)OCC(=O)Oc1c(C(C)C)cccc1C(C)C [Compound 2] | – | – | – | – | – | – | 100% | 100 | 100 | 100 | – | – | 87 | 98 | 100 | Immediate | 7 to 15 | 1 to 2
CC(C)c1cccc(C(C)C)c1OC(=O)COC(=O)CN1CCOCC1 [Compound 27] | – | – | – | Immediate | 4 to 12 | 1 to 2 | 86% | 100 | 100 | 100 | – | 4.5 | 60 | 65 | 79 | – | – | –
CC(C)c1cccc(C(C)C)c1OC(=O)COC(=O)CN [Compound 1] | – | – | – | – | – | – | 100% | 100 | 100 | 100 | – | – | 97 | 100 | 100 | Immediate | 6 to 12 | 1 to 2
CC(C)c1cccc([C@H](C)C2CC2)c1OC(=O)COC(=O)CN1CCOCC1.Cl [Compound 17] | Immediate | 5.5 to 8 | 1 to 2 | – | – | – | 85% | 100 | 100 | 100 | – | – | 55 | 63 | 78 | – | – | –
CC(C)c1cccc(C(C)C)c1OC(=O)COC(=O)[C@H](C)N [Compound 4] | – | – | – | Immediate | 5 to 13 | 1 to 2 | 100% | 100 | 100 | 100 | – | – | 94 | 100 | 100 | – | – | –
CC(C)c1cccc(C(C)C)c1OC(=O)COC(=O)CN1CCOCC1 [Compound 23] | – | – | – | Immediate | 5 to 13 | 1 to 2 | 100% | 100 | 100 | 100 | – | 4.4 | 89 | 100 | 100 | – | – | –
CC(C)C[C@@H](N)C(=O)OCC(=O)Oc1c(C(C)C)cccc1C(C)C.Cl [Compound 48] | – | – | – | Immediate | 6 to 14 | 1 to 2 | 100% | 100 | 100 | 100 | – | 4.1 | 92 | 100 | 100 | – | – | –
CC(C)c1cccc(C(C)C)c1OC(=O)COC(=O)CN(C)C [Compound 3] | – | – | – | – | – | – | 90% | 97 | 100 | 100 | – | – | 51 | 67 | 80 | Immediate | 5 to 10 | 1 to 2
CC(C)c1cccc([C@H](C)C2CC2)c1OC(=O)COC(=O)CN1CCOCC1 [Compound 19] | Immediate | 5.5 to 9 | 1 to 2 | – | – | – | – | – | – | – | – | – | – | – | – | – | – | –
CC(C)c1cccc(C(C)C)c1O [Propofol, reference compound] | – | – | – | – | – | – | – | – | – | – | – | 4.4 | – | – | – | Immediate | 5 to 11.5 | 1 to 2
